# What was measured:
# Test in all cases: Test C postemergence
# blackgrass = assay type: in vivo, Alopecurus myosuroides
# In short: (§1)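 Herbicidal effect is expressed as percent visual control (0–100) judged against untreated plants 13 to 15 days after treatment in the greenhouse. Preemergence pots contained seeds in a soil–sand blend; postemergence plants, 2–18 cm tall, grew in peat-based planting medium.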
# ryegrass, Italian = assay type: in vivo, Lolium multiflorum; conditions: postemergence
# In short: as §1
# wheat = assay type: in vivo, Triticum aestivum; conditions: postemergence, 250 g ai/ha; scale 0 to 100 (0 no effect, 100 complete control)
# In short: as §1
# galium = assay type: in vivo, Galium aparine
# In short: as §1
# corn = assay type: in vivo, Zea mays
# In short: as §1
# crabgrass, large = assay type: in vivo, Digitaria sanguinalis
# In short: as §1
# foxtail, giant = assay type: in vivo, Setaria faberii
# In short: as §1
# johnsongrass = assay type: in vivo, Sorghum halepense
# In short: as §1
# lambsquarters = assay type: in vivo, Chenopodium album
# In short: as §1
# pigweed = assay type: in vivo, Amaranthus retroflexus; conditions: postemergence
# In short: as §1
# ragweed = assay type: in vivo, Ambrosia elation; conditions: postemergence
# In short: as §1
# soybean = assay type: in vivo, Glycine max; conditions: postemergence
# In short: as §1
# barnyardgrass = assay type: in vivo, Echinochloa crus-galli
# In short: as §1
# oat, wild = assay type: in vivo, Avena fatua
# In short: as §1
# kochia = assay type: in vivo, Kochia scoparia
# In short: as §1
# velvetleaf = assay type: in vivo, Abutilon theophrasti; conditions: postemergence, 250 g ai/ha; scale 0 to 100 (0 no effect, 100 complete control)
# In short: as §1
# chickweed = assay type: in vivo, Stellaria media
# In short: as §1
# [1] = Postemergence, 31 g ai/ha, visually evaluated after 13 to 15 days
# [2] = postemergence, 62 g ai/ha, scale 0 to 100
# [3] = postemergence, 250 g ai/ha, scale 0 to 100 (0 no effect, 100 complete control)
# [4] = postemergence, 125 g ai/ha, scale 0 to 100, 0 no effect, 100 complete control
# [5] = 250 g ai/ha, scale 0 to 100 (0 no effect, 100 complete control)
# [6] = 125 g ai/ha, scale 0 to 100, 0 no effect, 100 complete control
compound,measurement,setting,value
CCOc1cc(C(=O)NC2CC2)nn1Cc1ccnc(C(F)(F)F)c1 [Compound 189],"Plant response rating (scale of 0 to 100 where 0 is no effect and 100 is complete control), Blackgrass",blackgrass; [1],5
same,Blackgrass plant response rating,blackgrass; [2],5
same,"Plant response rating, Blackgrass",blackgrass; [3],50
same,"Plant response rating, Blackgrass",blackgrass; [4],10
same,"Plant response rating, Ryegrass, Italian","ryegrass, Italian; [5]",40
same,"Plant response rating, Ryegrass, Italian","ryegrass, Italian; [6]",5
same,"Plant response rating, Wheat",wheat,15
same,"Plant response rating (scale of 0 to 100 where 0 is no effect and 100 is complete control), Galium",galium; [1],80
same,Galium plant response rating,galium; [2],80
same,"Plant response rating, Galium",galium; [3],90
same,"Plant response rating, Galium",galium; [4],90
same,"Plant response rating (scale of 0 to 100 where 0 is no effect and 100 is complete control), Corn",corn; [1],5
same,Corn plant response rating,corn; [2],10
same,"Plant response rating, Corn",corn; [3],60
same,"Plant response rating, Corn",corn; [4],10
same,"Plant response rating (scale of 0 to 100 where 0 is no effect and 100 is complete control), Crabgrass, Large","crabgrass, large; [1]",5
same,"Crabgrass, Large plant response rating","crabgrass, large; [2]",5
same,"Plant response rating, Crabgrass, Large","crabgrass, large; [3]",90
same,"Plant response rating, Crabgrass, Large","crabgrass, large; [4]",65
same,"Plant response rating (scale of 0 to 100 where 0 is no effect and 100 is complete control), Foxtail, Giant","foxtail, giant; [1]",10
same,"Foxtail, Giant plant response rating","foxtail, giant; [2]",10
same,"Plant response rating, Foxtail, Giant","foxtail, giant; [3]",75
same,"Plant response rating, Foxtail, Giant","foxtail, giant; [4]",25
same,"Plant response rating (scale of 0 to 100 where 0 is no effect and 100 is complete control), Johnsongrass",johnsongrass; [1],0
same,Johnsongrass plant response rating,johnsongrass; [2],15
same,"Plant response rating, Johnsongrass",johnsongrass; [3],35
same,"Plant response rating, Johnsongrass",johnsongrass; [4],5
same,"Plant response rating (scale of 0 to 100 where 0 is no effect and 100 is complete control), Lambsquarters",lambsquarters; [1],60
same,Lambsquarters plant response rating,lambsquarters; [2],70
same,"Plant response rating, Lambsquarters",lambsquarters; [3],85
same,"Plant response rating, Lambsquarters",lambsquarters; [4],95
same,Pigweed plant response rating,"pigweed; 62 g ai/ha, scale 0 to 100",75
same,"Plant response rating, Pigweed",pigweed; [5],90
same,"Plant response rating, Pigweed",pigweed; [6],85
same,"Plant response rating, Ragweed",ragweed; [5],90
same,"Plant response rating, Ragweed",ragweed; [6],75
same,"Plant response rating, Soybean",soybean; [5],95
same,Soybean plant response rating,soybean; [6],95
same,"Plant response rating (scale of 0 to 100 where 0 is no effect and 100 is complete control), Barnyardgrass",barnyardgrass; [1],5
same,Barnyardgrass plant response rating,barnyardgrass; [2],5
same,"Plant response rating, Barnyardgrass",barnyardgrass; [3],55
same,"Plant response rating, Barnyardgrass",barnyardgrass; [4],20
same,"Plant response rating (scale of 0 to 100 where 0 is no effect and 100 is complete control), Oat, Wild","oat, wild; [1]",10
same,"Oat, Wild plant response rating","oat, wild; [2]",15
same,"Plant response rating, Oat, Wild","oat, wild; [3]",60
same,"Plant response rating, Oat, Wild","oat, wild; [4]",30
same,"Plant response rating (scale of 0 to 100 where 0 is no effect and 100 is complete control), Kochia",kochia; [1],85
same,Kochia plant response rating,kochia; [2],90
same,"Plant response rating, Kochia",kochia; [3],90
same,"Plant response rating, Kochia",kochia; [4],90
same,"Plant response rating, Velvetleaf",velvetleaf,75
same,"Plant response rating (scale of 0 to 100 where 0 is no effect and 100 is complete control), Chickweed",chickweed; [1],80
same,Chickweed plant response rating,chickweed; [2],80
same,"Plant response rating, Chickweed",chickweed; [3],90
same,"Plant response rating, Chickweed",chickweed; [4],85

# — patent US20150105252A1, “SUBSTITUTED PYRAZOLES AS HERBICIDES” (E I DU PONT DE NEMOURS AND COMPANY, priority 2013, published 2015)
